Laboratory results taken from patent publication US5502061A, “Peptidyl substituted benzamides and naphthamies” (Eli Lilly and Company, priority 1994, dated 1996).

What follows are compounds tested against T1, HIV-1 protease (Human immunodeficiency virus type 1 group M subtype B, UniProt P04585) (assay: Fluorescence HIV-1 Protease Inhibitor Assay). Conditions: concentration giving 25% inhibition; the concentration of the compound was not increased above the stated concentration; normalized to positive control.
T1 construct: made in house; host or cells: E. coli K12 L507/pHP10D (NRRL B-18560)
Assay type: biochemical
Procedure: E. Fluorescence HIV-1 Protease Inhibitor Assay
The following buffers and solutions are used in the Fluorescence HIV-1 Protease Inhibitor Assay:
To each well of a round bottom, 96-well plate is added 20 μL of the Enzyme Solution followed by 10 μL of the compound to be evaluated in a 20% aqueous dimethylsulfoxide solution. Purified HIV-1 protease was obtained as described above. […] The solutions are then incubated for 16 hours at room temperature and then each well is diluted with 150 μL of MES-ALB buffer.
To each well of a second round bottom, 96-well Pandex plate is added 25 uL of the Avidin Coated Beads Solution. Then, to each well is added 25 μL of the diluted incubation solutions, prepared above. The solutions are mixed thoroughly and the plates are loaded into a Pandex® machine, washed, evacuated and read. Sample detection was performed by excitation at 485 nm, reading the resulting epifluorescence at 535 nm.

Compound | Fluorescence Assay IC25 [ng/mL]
CC(C)(C)NC(=O)c1ccccc1CC(O)C(Cc1ccccc1)NC(=O)C(CC(N)=O)NC(=O)C(NC(=O)OC(C)(C)C)c1ccccc1 (stereo not drawn) [Example 17, 2R-(2R*, 3S*, 6S*, 9R*)!-N-t-butyl-2-2-hydroxy-3-phenylmethyl-4,7-diaza 5,8-dioxo-6-(carbamoylmethyl)-9-N(t-butoxycarbonyl)amino-9-phenyl!nonyl benzamide] | 100

Same assay, conditions: concentration giving 43% inhibition; the concentration of the compound was not increased above the stated concentration; normalized to positive control

Compound | Fluorescence Assay IC43 [ng/mL]
CC(C)(C)NC(=O)c1ccccc1CC(O)C(Cc1ccccc1)NC(=O)C(N)CC(N)=O (stereo not drawn) [Example 5B, 2R-(2R*, 3S*, 6S*)!-N-t-Butyl-2-2-hydroxy-3-phenylmethyl-4-aza-5-oxo-6-amino-7-carbamoyl!heptyl benzamide] | 1000

Same assay, conditions: purified HIV-1 protease, biotin/FITC-labelled peptide substrate, Pandex read-out; all values normalized to the positive control (= 1.0)

Compound | Fluorescence Assay IC50 [ng/mL]
2R- (2R*, 3S*, 6S*, 9R*)!-N-t-Butyl-2- 2-hydroxy-3-phenylmethyl-4,7-diaza -2,8-dioxo-6-(1-methylethyl)-9-amino-10-naphth-1-yl!benzamide [Example 4] | 2.48
2R-(3R*,3S*,6S*,9R*)!-N-t-Butyl-2- 2-hydroxy-3-phenylmethyl-4,7-diaza -5,8,dioxo-6-(carbamoylmethyl)-9-amino-10-naphth-1-yl!decyl benzamide [Example 8] | 2.28
CC(C)C(NC(=O)C(Cc1cccc2ccccc12)NC(=O)OC(C)(C)C)C(=O)NC(Cc1ccccc1)C(O)Cc1ccccc1C(=O)NC(C)(C)C (stereo not drawn) [Example 1C, 2R-(2R*, 3S*, 6S*, 9S*)!-N-t-Butyl-2-2-hydroxy-3-phenylmethyl-4,7-diaza-5,8-dioxo-6-(1-methylethyl)-9-N(t-butoxycarbonyl)amino-10-naphth-1-yl!decyl benzamide] | 1.44
CC(C)C(NC(=O)C(Cc1cccc2ccccc12)NC(=O)OC(C)(C)C)C(=O)NC(Cc1ccccc1)C(O)Cc1ccccc1C(=O)NC(C)(C)C (stereo not drawn) [Example 2, 2R-(2R*,3S*,6S*,9R*)!-N-t-Butyl-2-2-hydroxy-3-phenylmethyl-4,7-diaza-5,8-dioxo-6-(1-methylethyl)-9-N(t-butoxycarbonyl)amino-10-naphth-1-yl!decyl benzamide] | 3.13
CC(C)C(NC(=O)C(N)Cc1cccc2ccccc12)C(=O)NC(Cc1ccccc1)C(O)Cc1ccccc1C(=O)NC(C)(C)C (stereo not drawn) [Example 3, 2R-(2R*, 3S*, 6S*, 9S*)!-N-t-Butyl-2-2-hydroxy-3-phenylmethyl-5,8-dioxo-6-(1-methylethyl)-9-amino-10-naphth-1-yl!decyl benzamide] | 0.48
CC(C)(C)NC(=O)c1ccccc1CC(O)C(Cc1ccccc1)NC(=O)C(CC(N)=O)NC(=O)C(Cc1cccc2ccccc12)NC(=O)OC(C)(C)C (stereo not drawn) [Example 5C, 2R-(2R*,3S*, 6S*,9R*)!-N-t-Butyl-2-2-hydroxy-3-phenylmethyl-4,7-diaza-5,8-dioxo-6-(carbamoylmethyl)-9-N(t-butoxycarbonyl))amino-10-naphth-1-yl!decyl benzamide] | 0.53
CC(C)(C)NC(=O)c1ccccc1CC(O)C(Cc1ccccc1)NC(=O)C(CC(N)=O)NC(=O)C(Cc1cccc2ccccc12)NC(=O)OC(C)(C)C (stereo not drawn) [Example 6, 2R-(2R*,3S*,6S*,9S*)!-N-t-Butyl-2-2-hydroxy-3-phenylmethyl-4,7-diaza-5,8-dioxo-6-(carbamoylmethyl)-9-N(t-butoxycarbonyl)amino-10-naphth-1-yl!decyl benzamide] | 2.4
CC(C)(C)NC(=O)c1ccccc1CC(O)C(Cc1ccccc1)NC(=O)C(CC(N)=O)NC(=O)C(N)Cc1cccc2ccccc12 (stereo not drawn) [Example 7, 2R-(2R*, 3S*, 6S*, 9S*)!-N-t-Butyl-2-2-hydroxy-3-phenylmethyl-4,7-diaza-5,8-dioxo-6-(carbamoylmethyl)-9-amino-10-naphth-1-yl!decyl benzamide] | 0.95
CC(C)(C)NC(=O)c1ccccc1CC(O)C(Cc1ccccc1)NC(=O)C(CC(N)=O)NC(=O)C(Cc1ccccc1)NC(=O)OC(C)(C)C (stereo not drawn) [Example 9, 2R-(2R*, 3S*, 6S*, 9S*)!-N-t-Butyl-2-2-hydroxy-3-phenylmethyl-4,7-diaza-5,8-dioxo-6-(carbamoylmethyl)-9-N(t-butoxycarbonyl)amino-10-phenyl!decyl benzamide] | 1.76
CC(C)(C)NC(=O)c1ccccc1CC(O)C(Cc1ccccc1)NC(=O)C(CC(N)=O)NC(=O)C(Cc1ccccc1)NC(=O)OC(C)(C)C (stereo not drawn) [Example 10, 2R-(2R*, 3S*, 6S*, 9R* )!-N-t-Butyl-2-2-hydroxy-3-phenylmethyl-4,7-diaza-5,8-dioxo-6-(carbamoylmethyl)-9-N(t-butoxycarbonyl)amino-10-phenyl!decyl benzamide] | 1.67
CC(C)(C)NC(=O)c1ccccc1CC(O)C(Cc1ccccc1)NC(=O)C(Cc1c[nH]cn1)NC(=O)C(Cc1cccc2ccccc12)NC(=O)OC(C)(C)C (stereo not drawn) [Example 11C, 2R-(2R*,3S*,6S*,9S*)!-N-t-Butyl-2-2-hydroxy-3-phenylmethyl-4,7-diaza-5,8-dioxo-6-(imidazol-4-ylmethyl)-9-N(t-butoxycarbonyl)amino-10-naphth-1-yl!decyl benzamide] | 7.78
CC(C)(C)NC(=O)c1ccccc1CC(O)C(Cc1ccccc1)NC(=O)C(Cc1c[nH]cn1)NC(=O)C(Cc1cccc2ccccc12)NC(=O)OC(C)(C)C (stereo not drawn) [Example 12, 2R-(2R*,3S*,6S*,9R*)!-N-t-Butyl-2-2-hydroxy-3-phenylmethyl-4,7-diaza-5,8-dioxo-6-(imidazol-4-ylmethyl)-9-N(t-butoxycarbonyl)amino-10-naphth-1-yl!decyl benzamide] | 1.6
CC(C)(C)NC(=O)c1ccccc1CC(O)C(Cc1ccccc1)NC(=O)C(CC(N)=O)NC(=O)C(Cc1cccc2ccccc12)NC(=O)OC(C)(C)C (stereo not drawn) [Example 13, 2R-(2R*,3S*, 6R*,9S*)!-N-t-Butyl-2-2-hydroxy-3-phenylmethyl-4,7-diaza-5,8-dioxo-6-(carbamoylmethyl)-9-N(t-butoxycarbonyl)amino-10-naphth-1-yl!decyl benzamide] | > 10000
CC(C)(C)NC(=O)c1ccccc1CC(O)C(Cc1ccccc1)NC(=O)C(CC(N)=O)NC(=O)C(Cc1c[nH]c2ccccc12)NC(=O)OC(C)(C)C (stereo not drawn) [Example 14, 2R-(2R*, 3S*, 6S*, 9S*)!-N-t-Butyl-2-2-hydroxy-3-phenylmethyl-4,7-diaza-5,8-dioxo-6-(carbamoylmethyl)-9-N(t-butoxycarbonyl)amino-10-indol-3-yl!decyl benzamide] | 0.93
CC(C)(C)NC(=O)c1cccc(CC(O)C(Cc2ccccc2)NC(=O)C(CC(N)=O)NC(=O)C(Cc2c[nH]c3ccccc23)NC(=O)OC(C)(C)C)c1 (stereo not drawn) [Example 15, 2R-(2R*, 3S*, 6S*, 9R*)!-N-t-Butyl-3-2-hydroxy-3-phenylmethyl-4,7-diaza-5,8-dioxo-6-(carbamoylmethyl)-9-N(t-butoxycarbonyl)amino-10-indol-3-yl!decyl benzamide] | 1.05
CC(C)(C)NC(=O)c1ccccc1CC(O)C(Cc1ccccc1)NC(=O)C(CC(N)=O)NC(=O)C(NC(=O)OC(C)(C)C)c1ccccc1 (stereo not drawn) [Example 16, 2R-(2R*, 3S*, 6S*, 9S*)!-N-t-Butyl-2-2-hydroxy-3-phenylmethyl-4,7-diaza-5,8-dioxo-6-(carbamoylmethyl)-9-N(t-butoxycarbonyl)amino-9-phenyl!nonyl benzamide] | 106
